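Following 48 hours of exposure in 96-well plates, responses at five concentrations were used to interpolate endpoints linearly. The concentration for 50% growth inhibition is given as GI50. TGI marks complete inhibition of growth.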
Legend:
Experiment in all cases: NCI tumour cell line growth inhibition, 48 h
CAKI-1 renal = system: CAKI-1 renal
HS 578T breast = system: HS 578T breast
OVCAR-4 ovarian = system: OVCAR-4 ovarian
T-47D breast = system: T-47D breast
SK-MEL-5 melanoma = system: SK-MEL-5 melanoma
RXF 393 renal = system: RXF 393 renal
SF-295 CNS = system: SF-295 CNS
SK-MEL-2 melanoma = system: SK-MEL-2 melanoma
BT-549 breast = system: BT-549 breast
MDA-MB-468 breast = system: MDA-MB-468 breast
KM12 colon = system: KM12 colon
TK-10 renal = system: TK-10 renal
NCI/ADR-RES ovarian = system: NCI/ADR-RES ovarian
HL-60(TB) leukemia = system: HL-60(TB) leukemia
SF-539 CNS = system: SF-539 CNS
SN12C renal = system: SN12C renal
SNB-75 CNS = system: SNB-75 CNS
SNB-19 CNS = system: SNB-19 CNS
ACHN renal = system: ACHN renal
HOP-92 NSCLC = system: HOP-92 NSCLC
A498 renal = system: A498 renal
NCI-H226 lung = system: NCI-H226 lung
HCT-15 colon = system: HCT-15 colon
SK-MEL-28 melanoma = system: SK-MEL-28 melanoma
A549 NSCLC = system: A549 NSCLC
MOLT-4 leukemia = system: MOLT-4 leukemia
HCT-116 colon = system: HCT-116 colon
LOX IMVI melanoma = system: LOX IMVI melanoma
K-562 leukemia = system: K-562 leukemia
HCC-2998 colon = system: HCC-2998 colon

COc1cc(Cn2c(C(F)(F)F)cc3c(Cl)ncnc32)ccn1
GI50 (CAKI-1 renal): 7.32 µM | TGI (CAKI-1 renal): 20.6 µM | GI50 (HS 578T breast): 3.13 µM | TGI (HS 578T breast): 16.6 µM | GI50 (OVCAR-4 ovarian): 12 µM | TGI (OVCAR-4 ovarian): 26.7 µM | GI50 (T-47D breast): 13.4 µM | TGI (T-47D breast): 61.6 µM | GI50 (SK-MEL-5 melanoma): 3.9 µM | TGI (SK-MEL-5 melanoma): 14.1 µM | GI50 (RXF 393 renal): 7.9 µM | TGI (RXF 393 renal): 22.4 µM | GI50 (SF-295 CNS): 16.8 µM | TGI (SF-295 CNS): 32.5 µM | GI50 (SK-MEL-2 melanoma): 9.95 µM | TGI (SK-MEL-2 melanoma): 22.5 µM | GI50 (BT-549 breast): 1.63 µM | TGI (BT-549 breast): 3.16 µM | GI50 (MDA-MB-468 breast): 1.78 µM | TGI (MDA-MB-468 breast): 3.77 µM | GI50 (KM12 colon): 13.5 µM | TGI (KM12 colon): 30.5 µM | GI50 (TK-10 renal): 18.9 µM | TGI (TK-10 renal): 46.9 µM | GI50 (NCI/ADR-RES ovarian): 15.3 µM | TGI (NCI/ADR-RES ovarian): 33.7 µM | GI50 (HL-60(TB) leukemia): 2.14 µM | TGI (HL-60(TB) leukemia): 7.28 µM | GI50 (SF-539 CNS): 13.8 µM | TGI (SF-539 CNS): 26.7 µM | GI50 (SN12C renal): 9.21 µM | TGI (SN12C renal): 21.5 µM | GI50 (SNB-75 CNS): 1.78 µM | TGI (SNB-75 CNS): 7.27 µM | GI50 (SNB-19 CNS): 11.8 µM | TGI (SNB-19 CNS): 24.1 µM | GI50 (ACHN renal): 14.4 µM | TGI (ACHN renal): 28.8 µM | GI50 (HOP-92 NSCLC): 10.7 µM | TGI (HOP-92 NSCLC): 30.3 µM | GI50 (A498 renal): 16 µM | TGI (A498 renal): 30.8 µM | GI50 (NCI-H226 lung): 15.5 µM | TGI (NCI-H226 lung): 32.3 µM | GI50 (HCT-15 colon): 3.09 µM | GI50 (SK-MEL-28 melanoma): 4.6 µM | TGI (SK-MEL-28 melanoma): 16.1 µM | GI50 (A549 NSCLC): 16.4 µM | TGI (A549 NSCLC): 38.4 µM | GI50 (MOLT-4 leukemia): 3.3 µM | TGI (MOLT-4 leukemia): > 100 µM | GI50 (HCT-116 colon): 1.74 µM | TGI (HCT-116 colon): 4.3 µM | GI50 (LOX IMVI melanoma): 1.67 µM | TGI (LOX IMVI melanoma): 3.17 µM | GI50 (K-562 leukemia): 2.36 µM | TGI (K-562 leukemia): > 100 µM | GI50 (HCC-2998 colon): 1.78 µM | TGI (HCC-2998 colon): 3.27 µM
